Assay results as given in US20240101521A1, “DIAMINOTRIAZINE COMPOUNDS” (BASF SE, priority 2021, published 2024).

What was measured:
Assay in all cases: greenhouse pre-emergence herbicidal test
Type in all cases: in vivo
Conditions in all cases: scale 0 to 100
Amaranthus retroflexus = tested on: Amaranthus retroflexus
Description: (§1) The culture containers used were plastic flowerpots containing loamy sand with approximately 3.0% of humus as the substrate. The seeds of the test plants were sown separately for each species.
(§2) For the pre-emergence treatment, the active ingredients, which had been suspended or emulsified in water, were applied directly after sowing by means of finely distributing nozzles. The containers were irrigated gently to promote germination and growth and subsequently covered with transparent plastic hoods until the plants had rooted. This cover caused uniform germination of the test plants, unless this had been impaired by the active ingredients. For the post-emergence treatment, the test plants were first grown to a height of 3 to 15 cm, depending on the plant habit, and only then treated with the active ingredients which had been suspended or emulsified in water. For this purpose, the test plants were either sown directly and grown in the same containers, or they were first grown separately as seedlings and transplanted into the test containers a few days prior to treatment.
(§3) Depending on the species, the plants were kept at 10-25° C. or 20-35° C., respectively.
(§4) The test period extended over 2 to 4 weeks. During this time, the plants were tended, and their response to the individual treatments was evaluated.
(§5) Evaluation was carried out using a scale from 0 to 100. 100 means no emergence of the plants, or complete destruction of at least the aerial moieties, and 0 means no damage, or normal course of growth. A moderate herbicidal activity is given at values of at least 60, a good herbicidal activity is given at values of at least 70, and a very good herbicidal activity is given at values of at least 85.
(§6) The plants used in the greenhouse experiments were of the following species: […]

Echinochloa crus-galli = tested on: Echinochloa crus-galli
Description: as §1, §2, §3, §4, §5, §6

Setaria faberi = tested on: Setaria faberi
Description: as §1, §2, §3, §4, §5, §6

Compound	herbicidal activity (Amaranthus retroflexus; pre-emergence, 62,5 g/ha)	herbicidal activity (Echinochloa crus-galli; pre-emergence, 62,5 g/ha)	herbicidal activity (Setaria faberi; pre-emergence, 62,5 g/ha)	herbicidal activity (Amaranthus retroflexus; pre-emergence, 62 g/ha)	herbicidal activity (Echinochloa crus-galli; pre-emergence, 62 g/ha)	herbicidal activity (Setaria faberi; pre-emergence, 62 g/ha)	other results
COCOc1c(Br)ccc(F)c1Nc1nc(N)nc(C(C)(C)F)n1 [Example 26]	–	–	–	–	–	–	herbicidal activity (Amaranthus retroflexus; pre-emergence, 250 g/ha): 100%; herbicidal activity (Echinochloa crus-galli; pre-emergence, 250 g/ha): 100%; herbicidal activity (Setaria faberi; pre-emergence, 250 g/ha): 100%
COc1c(Cl)ccc(F)c1Nc1nc(N)nc(C(C)F)n1 (stereo not shown) [Example 43]	100%	100%	100%	–	–	–	–
CCOc1c(Cl)cc(F)c(F)c1Nc1nc(N)nc(C2(F)CCCCC2)n1 [Example 110]	95%	100%	85%	–	–	–	–
CC(C)(F)c1nc(N)nc(Nc2c(F)c(F)cc(Cl)c2OC(F)F)n1 [Example 80]	–	–	–	100%	100%	100%	–
COc1c(Cl)cc(Cl)c(F)c1Nc1nc(N)nc(C2(F)CC2)n1 [Example 72]	–	–	–	100%	100%	100%	–
CC#CCOc1c(Br)cc(Cl)c(F)c1Nc1nc(N)nc(C(C)(C)F)n1 [Example 78]	–	–	–	100%	100%	100%	–
CC#CCOc1c(Cl)cc(F)c(F)c1Nc1nc(N)nc(C(C)(C)OC)n1 [Example 82]	–	–	–	100%	100%	100%	–
CCOc1c(Cl)cc(F)c(F)c1Nc1nc(N)nc(C(C)(C)F)n1 [Example 23]	100%	100%	100%	–	–	–	–
C#CCOc1c(Br)cc(F)c(F)c1Nc1nc(N)nc(C(C)F)n1 (stereo not shown) [Example 89]	–	–	–	100%	100%	100%	–
CCOc1c(Cl)ccc(F)c1Nc1nc(N)nc(C(C)(C)F)n1 [Example 41]	100%	100%	100%	–	–	–	–
C#CCOc1c(Cl)cc(F)c(F)c1Nc1nc(N)nc(C(C)(F)CCl)n1 (stereo not shown) [Example 86]	–	–	–	100%	100%	100%	–
C#CCOc1c(Br)cc(F)c(F)c1Nc1nc(N)nc(C2(F)CCCC2)n1 [Example 27]	–	–	–	–	–	–	herbicidal activity (Amaranthus retroflexus; pre-emergence, 31 g/ha): 100%; herbicidal activity (Setaria faberi; pre-emergence, 31 g/ha): 100%
COc1c(C)ccc(F)c1Nc1nc(N)nc(C(C)(C)F)n1 [Example 69]	–	–	–	100%	100%	100%	–
CCC#CCOc1c(Cl)cc(F)c(F)c1Nc1nc(N)nc(C(C)(C)F)n1 [Example 24]	100%	100%	100%	–	–	–	–
CCC(C)(F)c1nc(N)nc(Nc2c(F)c(Cl)cc(Cl)c2OC)n1 (stereo not shown) [Example 62]	–	–	–	–	–	–	herbicidal activity (Amaranthus retroflexus; pre-emergence, 31 g/ha): 100%; herbicidal activity (Echinochloa crus-galli; pre-emergence, 31 g/ha): 100%; herbicidal activity (Setaria faberi; pre-emergence, 31 g/ha): 100%
C#CCOc1c(C)cc(Br)c(F)c1Nc1nc(N)nc(C(C)(C)F)n1 [Example 67]	–	–	–	100%	100%	100%	–
COc1c(Cl)ccc(F)c1Nc1nc(N)nc(C(C)(F)F)n1 [Example 48]	–	–	–	–	–	–	herbicidal activity (Amaranthus retroflexus; pre-emergence, 31 g/ha): 100%; herbicidal activity (Echinochloa crus-galli; pre-emergence, 31 g/ha): 70%; herbicidal activity (Setaria faberi; pre-emergence, 31 g/ha): 100%
C#CCOc1c(Cl)cc(F)c(F)c1Nc1nc(N)nc(C2(F)CCCCC2)n1 [Example 112]	95%	95%	90%	–	–	–	–
COc1c(Cl)cc(F)c(F)c1Nc1nc(N)nc(C(C)Cl)n1 (stereo not shown) [Example 38]	100%	100%	100%	–	–	–	–
CC#CCOc1c(Br)cc(F)c(F)c1Nc1nc(N)nc(C(C)F)n1 (stereo not shown) [Example 90]	–	–	–	100%	100%	100%	–

Compound	herbicidal activity (Amaranthus retroflexus; pre-emergence, 62,5 g/ha)	herbicidal activity (Echinochloa crus-galli; pre-emergence, 62,5 g/ha)	herbicidal activity (Setaria faberi; pre-emergence, 62,5 g/ha)	herbicidal activity (Amaranthus retroflexus; pre-emergence, 62 g/ha)	herbicidal activity (Echinochloa crus-galli; pre-emergence, 62 g/ha)	herbicidal activity (Setaria faberi; pre-emergence, 62 g/ha)	other results
C#CCOc1c(C)ccc(F)c1Nc1nc(N)nc(C(C)(C)F)n1 [Example 71]	–	–	–	100%	100%	100%	–
CCC#CCOc1c(Br)cc(F)c(F)c1Nc1nc(N)nc(C2(F)CCCC2)n1 [Example 22]	85%	85%	100%	–	–	–	–
C#CCOc1c(Br)cc(C)c(F)c1Nc1nc(N)nc(C(C)(C)F)n1 [Example 74]	–	–	–	100%	100%	100%	–
C#CCOc1c(Br)cc(F)c(F)c1Nc1nc(N)nc(C(C)(C)OC)n1 [Example 87]	–	–	–	100%	100%	100%	–
C#CCOc1c(Cl)cc(F)c(F)c1Nc1nc(N)nc(C(C)F)n1 (stereo not shown) [Example 91]	–	–	–	100%	100%	100%	–
CC(C)(F)c1nc(N)nc(Nc2c(F)c(Cl)cc(Cl)c2OC(F)F)n1 [Example 93]	–	–	–	100%	100%	100%	–
COc1c(Br)cc(Cl)c(F)c1Nc1nc(N)nc(C(C)(C)F)n1 [Example 76]	–	–	–	100%	100%	100%	–
CC#CCOc1c(Br)ccc(F)c1Nc1nc(N)nc(C(C)(C)F)n1 [Example 46]	100%	100%	100%	–	–	–	–
CC#CCOc1c(Br)cc(C)c(F)c1Nc1nc(N)nc(C(C)(C)F)n1 [Example 75]	–	–	–	100%	100%	100%	–
C#CCOc1c(Cl)cc(F)c(F)c1Nc1nc(N)nc(C(C)(C)OC)n1 [Example 88]	–	–	–	100%	100%	100%	–
CC#CC(C)Oc1c(Br)cc(F)c(F)c1Nc1nc(N)nc(C2(F)CCCC2)n1 (stereo not shown) [Example 96]	–	–	–	–	70%	75%	–
CCOc1c(Br)ccc(F)c1Nc1nc(N)nc(C(C)(C)F)n1 [Example 45]	100%	100%	100%	–	–	–	–
C#CCOc1c(Cl)cc(F)c(F)c1Nc1nc(N)nc(C(C)(C)F)n1 [Example 28]	100%	100%	100%	–	–	–	–
CCOc1c(Cl)cc(Cl)c(F)c1Nc1nc(N)nc(C(C)(C)F)n1 [Example 83]	–	–	–	100%	100%	100%	–
C#CCOc1c(Br)cc(Cl)c(F)c1Nc1nc(N)nc(C(C)(C)F)n1 [Example 77]	–	–	–	100%	100%	100%	–
CC#CCOc1c(C)cc(Br)c(F)c1Nc1nc(N)nc(C(C)(C)F)n1 [Example 68]	–	–	–	100%	100%	100%	–
COc1c(Cl)cc(F)c(F)c1Nc1nc(N)nc(C(F)C2CC2)n1 (stereo not shown) [Example 40]	100%	100%	100%	–	–	–	–
COc1c(Br)ccc(F)c1Nc1nc(N)nc(C(C)F)n1 (stereo not shown) [Example 44]	100%	100%	100%	–	–	–	–
CCOc1c(Br)cc(F)c(F)c1Nc1nc(N)nc(C2(F)CCCC2)n1 [Example 21]	95%	100%	100%	–	–	–	–
CC#CCOc1c(C)ccc(F)c1Nc1nc(N)nc(C(C)(C)F)n1 [Example 70]	–	–	–	100%	100%	100%	–
